Data reported in ChEMBL document CHEMBL1201862, “PubChem BioAssay data set” (2004).
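Assay format: 96-well plates, 48-hour exposure. Abbreviation: GI50, concentration required for 50% inhibition of growth.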 Activity calls are given as the source filed them. No stated cut-off is given here; in the data, active = GI50 up to about 1.1 µM and inactive = higher.

Legend:
Test in all cases: NCI anticancer screen, dose series, 48 h
786-0 = test system: 786-0
A498 = test system: A498
A549 = test system: A549
ACHN = test system: ACHN
CAKI-1 = test system: CAKI-1
CCRF-CEM = test system: CCRF-CEM
COLO 205 = test system: COLO 205
DLD-1 = test system: DLD-1
DMS-114 = test system: DMS-114
DMS-273 = test system: DMS-273
EKVX = test system: EKVX
HCC 2998 = test system: HCC 2998
HCT-116 = test system: HCT-116
HCT-15 = test system: HCT-15
HL-60 = test system: HL-60
HOP-18 = test system: HOP-18
HOP-62 = test system: HOP-62
HOP-92 = test system: HOP-92
HT-29 = test system: HT-29
IGROV-1 = test system: IGROV-1
K562 = test system: K562
KM-20L2 = test system: KM-20L2
KM12 = test system: KM12
LOX IMVI = test system: LOX IMVI
LXFL 529 = test system: LXFL 529
M14 = test system: M14
M19-MEL = test system: M19-MEL
MOLT-4 = test system: MOLT-4
Malme-3M = test system: Malme-3M
NCI-H226 = test system: NCI-H226
NCI-H23 = test system: NCI-H23
NCI-H460 = test system: NCI-H460
NCI-H522 = test system: NCI-H522
OVCAR-3 = test system: OVCAR-3
OVCAR-4 = test system: OVCAR-4
OVCAR-5 = test system: OVCAR-5
OVCAR-8 = test system: OVCAR-8
RXF 393 = test system: RXF 393
RXF 631 = test system: RXF 631
SF-268 = test system: SF-268
SF-295 = test system: SF-295
SF-539 = test system: SF-539
SK-MEL-28 = test system: SK-MEL-28
SK-MEL-2 = test system: SK-MEL-2
SK-MEL-5 = test system: SK-MEL-5
SK-OV-3 = test system: SK-OV-3
SN12C = test system: SN12C
SNB-19 = test system: SNB-19
SNB-75 = test system: SNB-75
SNB-78 = test system: SNB-78
SR = test system: SR
SW-620 = test system: SW-620
TK-10 = test system: TK-10
U-251 = test system: U-251
UACC-257 = test system: UACC-257
UACC-62 = test system: UACC-62
UO-31 = test system: UO-31
XF498 = test system: XF498

O=C(/C=C/c1ccccc1)NC1C=Nc2ccc(Cl)cc2NC1=O (stereo not drawn)
GI50 (786-0): 23.2 µM (inactive)
GI50 (A498): 21.7 µM (inactive)
GI50 (A549): 28.2 µM (inactive)
GI50 (ACHN): 24.1 µM (inactive)
GI50 (CAKI-1): 22.6 µM (inactive)
GI50 (CCRF-CEM): 3.52 µM (inactive)
GI50 (COLO 205): 17.1 µM (inactive)
GI50 (DLD-1): 20.8 µM (inactive)
GI50 (DMS-114): 5.66 µM (inactive)
GI50 (DMS-273): 18.2 µM (inactive)
GI50 (EKVX): 31.3 µM (inactive)
GI50 (HCC 2998): 21.2 µM (inactive)
GI50 (HCT-116): 22.8 µM (inactive)
GI50 (HCT-15): 22.1 µM
GI50 (HL-60): 5.3 µM (inactive)
GI50 (HOP-18): 20.7 µM (inactive)
GI50 (HOP-62): 47.9 µM (inactive)
GI50 (HOP-92): 32.2 µM (inactive)
GI50 (HT-29): 30 µM (inactive)
GI50 (IGROV-1): 15 µM (inactive)
GI50 (K562): 9.42 µM (inactive)
GI50 (KM-20L2): 26 µM (inactive)
GI50 (KM12): 22.2 µM (inactive)
GI50 (LOX IMVI): 18.8 µM (inactive)
GI50 (LXFL 529): 23.9 µM (inactive)
GI50 (M14): 21.9 µM (inactive)
GI50 (M19-MEL): 23 µM (inactive)
GI50 (MOLT-4): 4.54 µM (inactive)
GI50 (Malme-3M): 26.9 µM (inactive)
GI50 (NCI-H226): 30.8 µM (inactive)
GI50 (NCI-H23): 27.5 µM (inactive)
GI50 (NCI-H460): 20.9 µM (inactive)
GI50 (NCI-H522): 9.64 µM (inactive)
GI50 (OVCAR-3): 19.5 µM (inactive)
GI50 (OVCAR-4): 20.5 µM (inactive)
GI50 (OVCAR-5): 44.5 µM (inactive)
GI50 (OVCAR-8): 29.5 µM (inactive)
GI50 (RXF 393): 16.2 µM (inactive)
GI50 (RXF 631): 19.5 µM (inactive)
GI50 (SF-268): 36.2 µM (inactive)
GI50 (SF-295): 29 µM (inactive)
GI50 (SF-539): 27.2 µM (inactive)
GI50 (SK-MEL-28): 37.9 µM (inactive)
GI50 (SK-MEL-2): 30.5 µM (inactive)
GI50 (SK-MEL-5): 16.5 µM (inactive)
GI50 (SK-OV-3): 25.1 µM (inactive)
GI50 (SN12C): 24.8 µM (inactive)
GI50 (SNB-19): 29.1 µM (inactive)
GI50 (SNB-75): 15.6 µM (inactive)
GI50 (SNB-78): 53.7 µM (inactive)
GI50 (SR): 7.01 µM (inactive)
GI50 (SW-620): 7.13 µM (inactive)
GI50 (TK-10): 36 µM (inactive)
GI50 (U-251): 18.6 µM (inactive)
GI50 (UACC-257): 26.4 µM (inactive)
GI50 (UACC-62): 26.2 µM (inactive)
GI50 (UO-31): 11.8 µM (inactive)
GI50 (XF498): 13.3 µM (inactive)
